# How the values were obtained:
# [1] = test system: Listeria innocua; assay: Preliminary growth inhibition test; assay type: cell-based; conditions: 37° C., 20 hours
# Description: (§1) Antimicrobial activity was investigated using Salmonella Typhimurium and Listeria innocua.
# [2] = test system: Salmonella Typhimurium DSMZ 554; assay: Preliminary growth inhibition test; assay type: cell-based; conditions: 37° C., 24 hour
# Description: as §1
# [3] = test system: L. monocytogenes 272; assay: Chicken soup trial at 8° C.; assay type: cell-based, Listeria monocytogenes; conditions: chicken soup at 8° C.
# Description: (§2) A local supermarket brand of cream of chicken soup was used as a model food system. 600 g packs were purchased from the local supermarket. This was a ‘fresh home-made type’ of soup that was stored in the chill cabinet, with a short shelf life. It was chosen because it is a rich, nutritious food system containing a range of food components including meat, dairy and vegetable.
# (§3) Ingredients were labelled as: chicken stock (water, duck fat, chicken, salt, flavourings, yeast extracts, pork gelatine, glucose syrup, vegetable concentrate, milk protein, sugar, malto-dextrin, vegetable oil, citric acid, lactose, chicken fat), ilk, chicken (9%), cream (8%), onion, potato, vegetable oil, modified maize starch, wheat flour, lemon juice, salt, white pepper. pH 5.912. Protein: 3.3%; carbohydrate: 4.7%; fat: 7.2%; fibre: 0.2%; sodium: 0.1%
# (§4) For the test the soup was mixed 2:1 in water (to facilitate sampling and mixing) and sterilised by autoclaving at 121° C. for 15 minutes. For each experiment the pH of the soup was recorded; this was between pH 5.79-5.88.
# (§5) For TCS010412/8 (which was incubated at 8° C.), APP batch number APP20010213 (concentration 169 mg APP/ml) was used to prepare tests containing 0, 2000 or 4000 ppm APP. 5 g of filter-sterilised APP stock solution was added to 94 g of soup, mixed and then 1 ml of a diluted inoculum suspension (cells or spores as appropriate) was added to give a test inoculum level of 10^3 cfu/g. The soup mixture was shaken vigorously to ensure homogeneous distribution of the APP and micro-organisms. The tests were tested by viable count and then incubated at 8° C. and tested on a twice-weekly basis.
# (§6) For TCS010521/8 (incubated at 8° C.), samples were prepared in 27.8 g quantities. 1.5 g of an APP stock solution was added, and the tests inoculated with 0.3 ml of a suitably diluted cell or spore suspension to give a final inoculum of ca. 10^3 cfu/g. APP was tested at 0, 500 and 1000 ppm, and batch number APP20010213 (at 169 mg/ml) was used. The tests were sampled by viable count and then incubated at 8° C. and tested on a twice-weekly basis.
# [4] = test system: Ps. fluorescens 3756; assay: Chicken soup trial at 8° C.; assay type: cell-based, Pseudomonas fluorescens; conditions: chicken soup at 8° C.
# Description: as §2, §3, §4, §5, §6
# [5] = test system: Lb. sake; assay: Test in milk; assay type: cell-based, Lactobacillus sake; conditions: for Control of growth: 2000 ppm, TMGB010605
# Experimental: 8.9 ml samples of UHT milk containing 0.5% glucose and the indicator bromocresol purple (0.01%) were prepared and sterilised by autoclaving. The pH before APP addition was pH 6.65. Appropriate stock solutions of APP batch number APP20010215 (at 138 mg/ml) were prepared and filter sterilised. 1 ml of each was added to the milk to prepare tests containing 0, 1000 and 2000 ppm APP. Tests were then inoculated with 100 μl of diluted overnight broth cultures or spore suspensions to give a final inoculum level of ca. 10^3 cfu/ml. These and uninoculated tests were incubated at 20 and 8° C. and examined daily for visible changes compared to uninoculated control.
# [6] = test system: Salm Typhimurium S29; assay: Test in cooked sausage meat slurry; assay type: cell-based, Salmonella Typhimurium; conditions: for Total inhibition for: cooked sausage meat slurry at 8° C., pH 6.2, TSM010605
# Description: 500 g of bologna sausage meat mixture was mixed with 500 g Brain Heart Infusion broth (BHIB) to make a homogeneous slurry. The bologna sausage meat mix comprised (g per kg): lean beef 320; lean pork 202; lard 250; water 40; glucose 5; starch 155; spice mix 3.75; sodium glutamate 0.5; sodium erythorbate 0.545; sodium di-phosphate 3; NaCl 20; sodium nitrite 0.15. 200 g samples of the meat slurry were autoclaved. While the meat was still warm it was re-mixed thoroughly. When the meat had cooled it was inoculated with 2 ml of 10^5 cfu/ml spore or cell suspension, and re-mixed again. Each inoculated meat sample was divided into 3×50 g samples, and 1 ml of either SDW, 2.5% or 5% APP solution (batch number APP 20010215) was added to prepare meat samples containing 0, 500 and 1000 ppm APP. The meat slurry was again shaken thoroughly to ensure even mixing, an initial viable count was taken and the samples incubated at 8° C. Samples were taken at twice-weekly intervals. The pH of the sausage meat slurry was 6.2.
# [7] = test system: B. cereus 204; assay: Test in cooked minced chicken slurry; assay type: cell-based, Bacillus cereus; conditions: 2000 ppm; minced chicken slurry at 8° C., pH 6.42, TCC010704
# Experimental: (§7) 1 kg of minced chicken (mainly lean meat) was purchased from the local butcher. This was mixed with 1 litre of BHI, mixed and dispensed as 100 g samples prior to autoclaving. When still warm, the meat was re-mixed thoroughly. When cooked, the meat was inoculated with 1 ml of 10^5 spores or cells (from an overnight broth), and re-mixed. The samples were then divided into 3×25 g portions, to which 0.5 ml of filter-sterilised APP20010215 was added (as 5% or 10% stock solutions) or water. An initial viable count was taken, and the samples then incubated at 8° C. and tested twice weekly. The pH of the chicken slurry was 6.42.
# [8] = test system: Ps. fluorescens 327; assay: Test in cooked minced chicken slurry; assay type: cell-based, Pseudomonas fluorescens; conditions: 2000 ppm, minced chicken slurry at 8° C.
# Experimental: as §7
# [9] = 2000 ppm, TCS010412, APP20010213
# [10] = 4000 ppm, TCS010412, APP20010213
smiles,measurement,setting,value
"O=C1CC(CO)OC=C1O (centres unmarked) [APP, Ascopyrone P]",Inhibition of bacterial growth,"[1]; 500 μg/ml APP, 10e3 cfu/ml",slight inhibition
same,Inhibition of bacterial growth,"[1]; 500 μg/ml APP, 10e5 cfu/ml",almost no inhibition
same,Inhibition of bacterial growth,"[1]; 1000 μg/ml APP, 10e3 cfu/ml",intermediate inhibition
same,Inhibition of bacterial growth,"[1]; 1000 μg/ml APP, 10e5 cfu/ml",slight inhibition
same,Inhibition of bacterial growth,"[1]; 2000 μg/ml APP, 10e3 cfu/ml",almost complete inhibition
same,Inhibition of bacterial growth,"[1]; 2000 μg/ml APP, 10e5 cfu/ml",intermediate inhibition
same,Inhibitory effect,[1]; 10e3 or 10e5 cfu/ml,satisfactory inhibitory effect
same,Inhibition of bacterial growth,[2]; 500 μg/ml APP,Intermediate inhibition
same,Inhibition of bacterial growth,[2]; 1000 μg/ml APP,strong inhibition
same,Inhibition of bacterial growth,"[2]; 2000 μg/ml APP, 10e3 and 10e5 cfu/ml",complete inhibition
same,Inhibition of bacterial growth,"[2]; 4000 μg/ml APP, 10e3 and 10e5 cfu/ml",complete inhibition
same,Inhibitory effect,[2]; 10e3 or 10e5 cfu/ml,satisfactory inhibitory effect
same,Effect on growth,"[3]; 500 ppm, TCSM010521, APP215",No effect with 500 ppm
same,Effect on growth,"[3]; 1000 ppm, TCSM010521, APP215",No total inhibition
same,Effect on growth rate,"[3]; 1000 ppm, TCSM010521, APP215",slight reduction
same,Counts reach,[3]; [9],Counts reach <105 with 2000 ppm.
same,Counts undetectable after,[3]; [9],Counts undetectable after ca 50 days at 2000 ppm
same,Counts undetectable after,[3]; [10],Counts undetectable after 20 days at 4000 ppm
same,Total inhibition for,[3]; [10],Total inhibition by 4000 ppm for >60 days.
same,Effect on growth,"[4]; 500 ppm, TCSM010521, APP215",Little effect with 500 ppm
same,Counts undetectable,"[4]; 1000 ppm, TCSM010521, APP215",At 1000 ppm counts undetectable >3 d
same,Total inhibition for,"[4]; 1000 ppm, TCSM010521, APP215",Total inhibition by 1000 ppm for >27 days.
same,Total inhibition for,[4]; [9],Total inhibition by 2000 and 4000 ppm for >60 days.
same,Total inhibition for,[4]; [10],Total inhibition by 2000 and 4000 ppm for >60 days.
same,Counts undetectable from day,"[4]; APP samples (2000, 4000 ppm), TCS010412, APP20010213",Counts undetectable from day 1 in APP samples
same,Control of growth,[5]; milk at 8° C.,No control observed
same,Control of growth,[5]; milk at 20° C.,No control observed
same,No inhibition (effect on growth of target organism by 2000 ppm APP),[5]; Milk at 8° C. pH 6.65,Lb. sake
same,No inhibition (effect on growth of target organism by 2000 ppm APP),[5]; Milk at 20° C. pH 6.65,Lb. sake
same,Total inhibition for,[6]; 500 ppm,Total inhibition by 500 for 25 d
same,Total inhibition for,[6]; 1000 ppm,Total inhibition by 1000 ppm for >38 d
same,Total inhibition (effect on growth of target organism by APP),"[6]; Cooked sausage meat slurry at 8° C. pH 6.2, (1000)",S. Typhimurium
same,Effect on growth,[7],Partial inhibition by 2000 ppm
same,10^6 reached at,"[8]; TCC010704, controls 3 d",10 d
same,Effect on growth,"[8]; pH 6.42, TCC010704",No total inhibition

# Reference: patent US20030203963A1, “Antimicrobial agent” (priority 2001, published 2003)
